The source of these data is ChEMBL document CHEMBL1806478, “Synthesis of novel inhibitors of β-glucuronidase based on benzothiazole skeleton and study of their binding affinity by molecular docking” (Bioorg Med Chem, 2011).

Broadly, the inhibition is the relative decrease from the control value, in per cent. As usually defined, the IC50 is the concentration that inhibits the measured activity by half.

Each structure is given as a SMILES string. Activity calls are given as the source filed them. No cut-off for these calls is given here. Where only a bound is given, the exact number is not on record here.

A short description of series [1]: Inhibition of urease.
Series [2] can be described thus: Inhibition of alpha-chymotrypsin.
The target in series [3] is T1, Beta-glucuronidase (Bos taurus) (UniProt A3KMY8).
T1 sequence (whole entry): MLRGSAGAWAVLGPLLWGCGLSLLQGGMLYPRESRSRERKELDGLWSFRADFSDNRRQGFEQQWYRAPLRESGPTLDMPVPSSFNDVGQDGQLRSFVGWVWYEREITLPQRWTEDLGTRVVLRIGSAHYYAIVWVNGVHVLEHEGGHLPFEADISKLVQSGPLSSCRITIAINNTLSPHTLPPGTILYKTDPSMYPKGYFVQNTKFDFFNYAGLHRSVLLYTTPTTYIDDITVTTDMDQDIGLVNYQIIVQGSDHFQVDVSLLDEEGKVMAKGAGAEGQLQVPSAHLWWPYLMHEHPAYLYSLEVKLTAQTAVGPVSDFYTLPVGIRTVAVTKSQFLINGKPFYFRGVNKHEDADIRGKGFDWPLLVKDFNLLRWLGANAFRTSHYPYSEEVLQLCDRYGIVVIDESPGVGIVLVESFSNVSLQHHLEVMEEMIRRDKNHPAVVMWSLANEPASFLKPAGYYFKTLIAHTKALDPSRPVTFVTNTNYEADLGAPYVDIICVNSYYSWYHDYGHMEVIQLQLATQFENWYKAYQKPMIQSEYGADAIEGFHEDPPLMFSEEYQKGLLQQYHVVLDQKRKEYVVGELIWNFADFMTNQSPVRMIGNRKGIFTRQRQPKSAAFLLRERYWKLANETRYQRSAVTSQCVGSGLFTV
As to the kind of experiment: Inhibition of bovine liver beta glucuronidase assessed as p-nitrophenol formation at 0.2 mM after 30 mins by spectrophotometric method.

The target of series [4] is T1, Beta-glucuronidase (Bos taurus). In words: Ratio of D-saccharic acid 1,4-lactone IC50 to compound IC50 for bovine liver beta glucuronidase.
In the next series the target is T2, Beta-glucuronidase (Bos taurus, UniProt A3KMY8).
T2 sequence (A3KMY8 whole entry): T1 sequence (whole entry)
In words: (§1) Inhibition of bovine liver beta glucuronidase assessed as p-nitrophenol formation after 30 mins by spectrophotometric method.

Another series concerns CC-1. In words: Cytotoxic activity against Wistar rat CC1 cells assessed as cell viability at 1 to 20 ug/ml after 48 hrs by MTT assay. It is filed as cell-based. The following applies: cc-1, 48 h. (In general: Formazan colour is commonly taken as a measure of viable cells.)
The next series deals with 3T3-L1. In words: Cytotoxic activity against mouse 3T3L1 cells assessed as cell viability at 1 to 20 ug/ml after 48 hrs by MTT assay. Format: cell-based. The following applies: 3t3-l1, 48 h.
Series [5] has as its target T1, Beta-glucuronidase (Bos taurus). Described as §1.

With `Clc1ccc(-c2nc3ccccc3s2)cc1Cl`, the inhibition result in series [1] and in series [2] was “inactive” each time. Moreover, the inhibition in series [3] was under 50%.

`Oc1cc(O)c(-c2nc3ccccc3s2)cc1O`: the Ratio IC50 in series [4] was found to be 24. Also, the inhibition entry in series [1] and in series [2] was “inactive” throughout. Further, at Beta-glucuronidase, the half-inhibitory concentration (IC50) came out at 2.26 µM. Also, the Activity result in the series on CC-1 and with 3T3-L1 was “Non-toxic” in each case.

Take `CN(C)c1ccc(-c2nc3ccccc3s2)cc1`: the inhibition result in series [1], in series [5] and in series [2] was “inactive” throughout.

For the compound `Oc1ccccc1-c1nc2ccccc2s1`, the Ratio IC50 in series [4] amounted to 12. Moreover, the inhibition result in series [1] and in series [2] was “inactive” in each case. The IC50 on Beta-glucuronidase turned out to be 4.23 µM. Further, the Activity result in the series on CC-1 and in the series with 3T3-L1 was “Non-toxic” in each case.

Take `CCOc1cccc(-c2nc3ccccc3s2)c1O`: the inhibition entry in series [1], in series [5] and in series [2] was “inactive” throughout.

For the compound `Oc1ccc(-c2nc3ccccc3s2)cc1O`, the inhibition entry in series [1] and in series [2] was “inactive” each time. In addition, at Beta-glucuronidase, the half-maximal inhibitory concentration (IC50) is 94 µM. Also, the Activity result in the series on CC-1 and in the series on 3T3-L1 was “Non-toxic” throughout.

Consider `Oc1cccc(-c2nc3ccccc3s2)c1`, for which the inhibition entry in series [1] and in series [2] was “inactive” each time. On Beta-glucuronidase, the IC50 came to 36.1 µM. Further, the Activity entry in the series on CC-1 and with 3T3-L1 was “Non-toxic” each time.

Consider `COc1cccc(-c2nc3ccccc3s2)c1O`, for which the inhibition entry in series [1] and in series [2] was “inactive” in each case. Besides, the inhibition in series [3] was under 50%.

Regarding `Oc1ccc(-c2nc3ccccc3s2)c(O)c1`, the inhibition entry in series [1] and in series [2] was “inactive” each time. At Beta-glucuronidase, the IC50 amounted to 19.4 µM. Further, the Activity entry in the series with CC-1 and in the series with 3T3-L1 was “Non-toxic” throughout.

Turning to `Clc1ccc(-c2nc3ccccc3s2)c(Cl)c1`, the inhibition entry in series [1], in series [5] and in series [2] was “inactive” each time.

`c1cncc(-c2nc3ccccc3s2)c1`: the inhibition entry in series [1], in series [5] and in series [2] was “inactive” each time.

Turning to `c1ccc2sc(-c3ccncc3)nc2c1`, the inhibition entry in series [1] and in series [2] was “inactive” in each case. In addition, the inhibition in series [3] was under 50%.

In the case of `Clc1cccc(-c2nc3ccccc3s2)c1`, the inhibition result in series [1] and in series [2] was “inactive” each time. Moreover, the inhibition in series [3] is under 50%.

Take `Cc1ccc(-c2nc3ccccc3s2)cc1`: the inhibition result in series [1] and in series [2] was “inactive” throughout. For the same compound, the inhibition in series [3] is under 50%.

`Brc1ccc(-c2nc3ccccc3s2)cc1`: the inhibition entry in series [1], in series [5] and in series [2] was “inactive” in each case.

For `Oc1ccc(-c2nc3ccccc3s2)cc1`, the inhibition entry in series [1] and in series [2] was “inactive” in each case. In addition, the IC50 on Beta-glucuronidase amounted to 8.9 µM. Moreover, the Activity result in the series on CC-1 and in the series with 3T3-L1 was “Non-toxic” in each case.

As for `Oc1ccc(O)c(-c2nc3ccccc3s2)c1`, the inhibition entry in series [1] and in series [2] was “inactive” throughout. Moreover, the IC50 at Beta-glucuronidase was determined as 8.9 µM. For the same compound, the Activity entry in the series on CC-1 and in the series with 3T3-L1 was “Non-toxic” each time.

As for `Fc1ccccc1-c1nc2ccccc2s1`, the inhibition entry in series [1], in series [5] and in series [2] was “inactive” in each case.

With `Cc1ccccc1-c1nc2ccccc2s1`, the inhibition result in series [1] and in series [2] was “inactive” throughout. In addition, the inhibition in series [3] is under 50%.

With `c1csc(-c2nc3ccccc3s2)c1`, the inhibition result in series [1] and in series [2] was “inactive” in each case. Moreover, the inhibition in series [3] was under 50%.

Regarding `Oc1cccc(-c2nc3ccccc3s2)c1O`, the inhibition result in series [1] and in series [2] was “inactive” throughout. Besides, the inhibition in series [3] was under 50%.

In the case of `Clc1ccc(-c2nc3ccccc3s2)cc1`, the inhibition result in series [1] and in series [2] was “inactive” in each case. The inhibition in series [3] is under 50%.

On to `CCOc1ccc(-c2nc3ccccc3s2)cc1`, for which the inhibition result in series [1], in series [5] and in series [2] was “inactive” throughout.

Take `Oc1ccc(Cl)cc1-c1nc2ccccc2s1`: the inhibition result in series [1] and in series [2] was “inactive” each time. For the same compound, the inhibition in series [3] was under 50%.

As for `c1ccc2cc(-c3nc4ccccc4s3)ccc2c1`, the inhibition result in series [1] and in series [2] was “inactive” throughout. Also, in series [3], the inhibition is under 50%.

As to `COc1ccc(-c2nc3ccccc3s2)cc1OC`, the inhibition result in series [1], in series [5] and in series [2] was “inactive” each time.
